# Where no end group is shown, it is not given here.
# Test system: 18Neo (H-2^d; class I MHC^+, class II MHC^- neomycin-resistance gene-transfected 3T3 fibroblast)
# Settings: in the absence of CTL
sequence,measurement,value
GFADLMGYIPLVGAPL [Peptide C7],direct toxicity to the cells,not directly toxic

# — EP0754193B1, “HEPATITIS C VIRUS CORE PEPTIDE FOR STIMULATION OF CYTOTOXIC T LYMPHOCYTES AND DIAGNOSIS OF HCV EXPOSURE” (priority 1994, dated 1995)
